From patent publication US8906897B2, “Antimicrobial agents based on hemin derivatives” (Obschestvo S Ogranichennoi Otvetstvennostiyu …, priority 2009, dated 2014)
“Also recorded” adds a separate entry of the source.

What was measured:
Candida albicans No. 927 = assay: Antifungal activity, culture growth with pH indicator; assay type: cell-based; parameters: key to Test culture growth at various dilutions of the agent: (−) No growth; the indicator is blue; (±) Weak growth; the indicator is yellow, but the precipitate of grown cells looks as a diffuse spot; (+) Strong growth; the indicator is yellow, and the cell precipitate looks as a compact spot
How it was run: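 Museum strains grown one day on glucose-peptone-yeast medium at 32° C; compounds two-fold serially diluted (DMSO ≤5% for insoluble ones) in synthetic medium with Bromocresol Blue, ~10^3 CFU/mL. Growth read as blue-to-yellow shift (pH 5.5→4.5) after 1 h at 32° C with stirring, then 27° C: C. neoformans 2 and 5 days, C. albicans 1 and 4 days.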

[1] = system: Enterococcus faecalis No. 559; assay: Specific activity against resistant bacterial strains; assay type: cell-based; settings: Ent. faecalis 559; 24 h, 36° C.
Protocol: (§1) The tested agents were water-soluble hemin derivatives (compounds VII and XVIII) or DMSO-soluble derivatives (compounds VIII, XV, and XIV). Vancomycin was the reference compound. Each compound was tested in three replicas.
(§2) Sterile single-use flat-bottomed 96-well plates, Petri dishes, pipettes, tips, and test tubes (Pan-Eco, Moscow) were used in the study.
(§3) The nutritional media used were as follows. A working Mueller Hinton broth was prepared from dry media (Mueller Hinton broth, Acumedia, Baltimore) and sterilized by autoclaving at 121° C. for 15 min.
(§4) Staphylococcus aureus was cultured on the Tripticase Soy Agar (BBL) commercially available dry medium. Enterococcus faecalis was cultured on the Columbia Agar Base (BBL) commercially available dry medium. These media were sterilized by autoclaving at 121° C. for 15 min.
(§5) Bacterial inoculum was fixed and equal to 5×10^5 CFU/mL.
(§6) For water-soluble compounds, wells from 2nd through 8th were added with the solvent (water) in an amount of 15 μL per well, then the 1st well was added with 30 μL of the stock solution of the tested compound in water with a concentration of 1×10^3M, and the concentration was adjusted to 0.007×10^3 M by serial twofold dilutions. A 10-μL portion was taken from every well, and 190 μL of the bacterial culture (10^5 CFU) was added per well.
(§7) For DMSO-soluble compounds, wells from 2nd through 8th were added with the solvent (DMSO) in an amount of 10 μL per well, then the 1st well was added with 20 μL of the stock solution of the tested compound in […] with a concentration of 5×10^3M, and the concentration was adjusted to 0.039×10^3 M by serial twofold dilutions. A 2-μL portion was taken from each well, and 198 μL of the bacterial culture (10^5 CFU) was added per well.
(§8) The control comprised wells free of tested compounds (culture growth control). In addition, purity control of nutritional media and solvents was used. Plates were incubated in a thermostat at 36° C. for 24 hours.
(§9) Culture growth was evaluated visually by comparison of how microorganisms grew in the presence of tested compounds and in the absence of them. MSC (the minimal suppressing concentration) was set equal to the last dilution of a tested agent which suppressed bacterial culture growth.

[2] = system: Staphylococcus epidermidis No. 533; assay: as above; assay type: cell-based; settings: St. epiderm 533; 24 h, 36° C.
Protocol: as §1, §2, §3, §4, §5, §6, §7, §8, §9

[3] = system: Staphylococcus aureus No. 100 KC; assay: as above; assay type: cell-based; settings: St. aureus 100 KC; 24 h, 36° C.
Protocol: as §1, §2, §3, §4, §5, §6, §7, §8, §9

[4] = system: Staphylococcus aureus No. 25923 ATCC; assay: as above; assay type: cell-based; settings: St. aureus 25923; 24 h, 36° C.
Protocol: as §1, §2, §3, §4, §5, §6, §7, §8, §9

[5] = Solubility of tested agents (water / DMSO); settings: water or DMSO
[6] = system: Cryptococcus neoformans No. 3465; assay: Antifungal activity, culture growth with pH indicator; assay type: cell-based; parameters: key: (−) No growth; the indicator is blue; (±) Weak growth; the indicator is yellow, but the precipitate of grown cells looks as a diffuse spot; (+) Strong growth; the indicator is yellow, and the cell precipitate looks as a compact spot
Protocol: The subjects of action were Cryptococcus neoformans No. 3465 museum strain cells and Candida albicans No. 927 museum strain cells grown for one day on a glucose-peptone-yeast medium at 32° C. The reference compounds were the following antimycotics: pimafucin, amphotericin, and fluconazole.
Experiments were carried out on round-bottomed 96-well plates (Lenmedpolimer) in two replicas. To the first column (0), added was 10 μL of the stock solution of a water-soluble agent with concentrations of 10^−2 to 10^−3 mol/L; to the second column, added was also the same 10 μL plus 10 μL of the solvent corresponding to the given compound, suspended, 10 μL was transferred to the next well, and so on to the 8th well of the row. Stock solutions of water-insoluble compounds of general formula (I) (compounds V, VIII, XII, XIII, XIV, and hemin) were prepared in DMSO and were diluted with DMSO and the medium. DMSO concentrations in the reaction mixture in a well were ≦5%.
Then, to every well added was 190 μL of a Cr. neoformans cell culture suspension in a synthetic nutritional medium (so that the final cell concentration was approximately 10^3 CFU/mL), this medium containing Bromocresol Blue as a pH-indicator (pH: 5.5; indicator color: blue). As pH reduced to 4.5, the indicator in the culture changed its color to yellow, thereby indicating fungal cell growth. The synthetic medium comprised the following components: salts, amino acids, microelements, vitamins, an antibiotic, and glucose (30 components altogether) [Yarrow, D., “Methods for the Isolation, Maintenance and Identification of Yeasts,” in: The Yeasts. A Taxonomic Study, Ed. by Kurtsman, C. P, and Fell, M., Elsevier, 1998, pp. 77-100]. After being inoculated with a Cr. neoformans cell suspension, the plate was incubated at 32° C. for 1 h with stirring, then transferred to a stationary thermostat and incubated for two and five days at 27° C. After being inoculated with a C. albicans cell suspension, the plates were incubated for 1 h at 32° C. with stirring, then transferred to a stationary thermostat and incubated for one and four days at 27° C.

[7] = dilution : 16 of 5.00 × 10^−5 M
[8] = dilution : 32 of 5.00 × 10^−5 M
[9] = dilution : 64 of 5.00 × 10^−5 M
[10] = dilution : 128 of 5.00 × 10^−5 M

| SMILES | Test culture growth at various dilutions of the agent (Candida albicans No. 927; dilution 0: 1 × 10^−4 M) | Test culture growth at various dilutions of the agent (Candida albicans No. 927; dilution : 2 of 1 × 10^−4 M) | Test culture growth at various dilutions of the agent (Candida albicans No. 927; dilution : 4 of 1 × 10^−4 M) | Test culture growth at various dilutions of the agent (Candida albicans No. 927; dilution : 8 of 1 × 10^−4 M) | Test culture growth at various dilutions of the agent (Candida albicans No. 927; dilution : 16 of 1 × 10^−4 M) | Test culture growth at various dilutions of the agent (Candida albicans No. 927; dilution : 32 of 1 × 10^−4 M) | Test culture growth at various dilutions of the agent (Candida albicans No. 927; dilution : 64 of 1 × 10^−4 M) | MICs for hemin derivatives against Gr+ strains [1] | MICs for hemin derivatives against Gr+ strains [2] | MICs for hemin derivatives against Gr+ strains [3] | MICs for hemin derivatives against Gr+ strains [4] | solubility (in words) [5] | Test culture growth at various dilutions of the agent on day 2 ([6]; dilution 0: 5.00 × 10^−5 M) | Test culture growth at various dilutions of the agent on day 2 ([6]; dilution : 2 of 5.00 × 10^−5 M) | Test culture growth at various dilutions of the agent on day 2 ([6]; dilution : 4 of 5.00 × 10^−5 M) | Test culture growth at various dilutions of the agent on day 2 ([6]; dilution : 8 of 5.00 × 10^−5 M) | Test culture growth at various dilutions of the agent on day 2 [6, 7] | Test culture growth at various dilutions of the agent on day 2 [6, 8] | Test culture growth at various dilutions of the agent on day 2 [6, 9] | Test culture growth at various dilutions of the agent on day 2 [6, 10] | further results |
| --- | --- | --- | --- | --- | --- | --- | --- | --- | --- | --- | --- | --- | --- | --- | --- | --- | --- | --- | --- | --- | --- |
| C=CC1=C(C)c2cc3[n-]c(cc4nc(cc5[n-]c(cc1n2)c(C)c5CCC(=O)NCCO)C(CCC(=O)NCCO)=C4C)c(C)c3C=C.[Cl-].[Fe+3] [Compound XIV, Protohemin IX 6,7-bis-N-(2-Hydroxyethyl)amide] | ± | + | + | + | + | + | + | 6.25 µM | 5.21 µM | >50 µM | 5.21 µM | DMSO-soluble; also recorded: water-insoluble |  |  |  |  |  |  |  |  |  |
| C=CC1=C(C)c2cc3[n-]c(cc4nc(cc5[n-]c(cc1n2)c(C)c5CCC(=O)N[C@@H](CCC(=O)N[C@@H](CCCNC(=N)N)C(=O)OC)C(=O)N[C@@H](CCCNC(=N)N)C(=O)OC)C(CCC(=O)N[C@@H](CCC(=O)N[C@@H](CCCNC(=N)N)C(=O)OC)C(=O)N[C@@H](CCCNC(=N)N)C(=O)OC)=C4C)c(C)c3C=C.[Cl-].[Fe+3] [Compound XVIII, 6,7-bis[bis(N^α-L-Arginyl Methyl Ester)-L-Glutamyl]-Protohemin IX] | − | − | − | ± | ± | ± | ± | 0.78 µM | 0.78 µM | 1.56 µM | 0.78 µM | water-soluble | − | − | − | − | + | + | + | + | concentration with practically fungicidal effect (Candida albicans No. 927; control inoculations from wells on day 1 to 4 post-exposure): about 5×10^−5 M |
| C=CC1=C(C)c2cc3[n-]c(cc4[n-]c(cc5nc(cc1n2)C(C)=C5C=C)c(C)c4CCC(=O)O)c(CCC(=O)O)c3C.[Cl-].[Fe+3] [Hem, hemin] | ± | + | + | + | + | + | + | >10 µM | >10 µM | >10 µM | >10 µM | water-insoluble | ± | ± | ± | ± | ± | ± | + | + |  |
| C=CC1=C(C)c2cc3[n-]c(cc4nc(cc5[n-]c(cc1n2)c(C)c5CCC(=O)N[C@@H](CO)C(=O)OC)C(CCC(=O)N[C@@H](CO)C(=O)OC)=C4C)c(C)c3C=C.[Cl-].[Fe+3] [VIII] | ± | ± | ± | + | + | + | + | 3.12 µM | 5.21 µM | 6.25 µM | 2.6 µM | DMSO-soluble; also recorded: water-insoluble | ± | ± | ± | + | + | + | + | + |  |
